Experimental data reported in patent US10544130B2, “Metallo-beta-lactamase inhibitors” (priority 2015, dated 2020).

test system: Pseudomonas aeruginosa PAO1 MB9798 (efflux+, IMP-1); details: ratio MITC95 PA 9798/MITC95 PA 9799; imipenem at 2 μg/mL
Summary of the method: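 Isogenic PAO1 pair (efflux+ MB9798, efflux− MB9799, both IMP-1) tested by microbroth MIC with fixed imipenem and/or ceftazidime, usually at CLSI breakpoint, plus fixed class A/C inhibitor against AmpC. MBL inhibitor titrated; concentration restoring susceptibility recorded and fold difference between strains taken as efflux extent.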

`NCCCNS(=O)(=O)c1ccc(-c2cccc3sc(N)nc23)c(-c2nnn[nH]2)c1S(N)(=O)=O.O=C(O)C(F)(F)F` [Example 90, 3-(4-(2-aminobenzo[d]thiazol-4-yl)-2-sulfamoyl-3-(1H-tetrazol-5-yl)phenylsulfonamido) propan-1-aminium 2,2,2-trifluoroacetate] and `CN1CCC(CNS(=O)(=O)c2ccc(-c3cccc4sc(N)nc34)c(-c3nnn[nH]3)c2S(N)(=O)=O)C1.O=C(O)C(F)(F)F` (stereo not drawn) [Example 102, 3-((4-(2-aminobenzo[d]thiazol-4-yl)-2-sulfamoyl-3-(1H-tetrazol-5-yl)phenylsulfonamido)methyl)-1-methylpyrrolidin-1-ium 2,2,2-trifluoroacetate] are the same in Efflux ratio: 0.50 for the first, 0.50 for the second.

`Nc1nc2c(-c3ccc(S(=O)(=O)NC[C@H]4CCNC4)c(S(N)(=O)=O)c3-c3nnn[nH]3)cccc2s1` [Example 73, 4-(2-amino-1,3-benzothiazol-4-yl)-N^1-[(3S)-pyrrolidin-3-ylmethyl]-3-(1H-tetrazol-5-yl)benzene-1,2-disulfonamide] and `Nc1nc2c(-c3ccc(S(=O)(=O)N[C@@H]4CCNC4)c(S(N)(=O)=O)c3-c3nnn[nH]3)cccc2s1` [Example 63, 4-(2-amino-1,3-benzothiazol-4-yl)-N1-[(3R)-pyrrolidin-3-yl]-3-(1H-tetrazol-5-yl)benzene-1,2-disulfonamide] are the same in Efflux ratio: 0.50 for the first, 0.50 for the second.

Going from `CNC(=O)CNS(=O)(=O)c1ccc(-c2cccc3sc(N)nc23)c(-c2nnn[nH]2)c1S(N)(=O)=O` [Example 23, N^2-{[4-(2-amino-1,3-benzothiazol-4-yl)-2-sulfamoyl-3-(1H-tetrazol-5-yl)phenyl]sulfonyl}-N-methylglycinamide] to `CC(C)(N)CNS(=O)(=O)c1ccc(-c2cccc3sc(N)nc23)c(-c2nnn[nH]2)c1S(N)(=O)=O` [Example 87, N^1-(2-amino-2-methylpropyl)-4-(2-aminobenzo[d]thiazol-4-yl)-3-(1H-tetrazol-5-yl)benzene-1,2-disulfonamide], the Efflux ratio falls from 1.00 to 0.50.

Going from `CC(C)(CN)NS(=O)(=O)c1ccc(-c2cccnc2N)c(-c2nn[nH]n2)c1S(N)(=O)=O` [Example 211, N1-(1-amino-2-methylpropan-2-yl)-4-(2-aminopyridin-3-yl)-3-(2H-tetrazol-5-yl)benzene-1,2-disulfonamide] to `NCCNS(=O)(=O)c1ccc(-c2ccc(N)nc2)c(-c2nn[nH]n2)c1S(N)(=O)=O` [Example 196, N^1-(2-aminoethyl)-4-(6-aminopyridin-3-yl)-3-(2H-tetrazol-5-yl)benzene-1,2-disulfonamide], the Efflux ratio falls from 4.00 to 1.00.

First: CN1CCC(N(C)S(=O)(=O)c2ccc(-c3cccc4sc(N)nc34)c(-c3nnn[nH]3)c2S(N)(=O)=O)C1 (stereo not drawn) [Example 54, 4-(2-amino-1,3-benzothiazol-4-yl)-N1-methyl-N^1-(1-methylpyrrolidin-3-yl)-3-(1H-tetrazol-5-yl)benzene-1,2-disulfonamide]
Second: CN(C1CCS(=O)(=O)C1)S(=O)(=O)c1ccc(-c2cccc3sc(N)nc23)c(-c2nnn[nH]2)c1S(N)(=O)=O (stereo not drawn) [Example 41, 4-(2-amino-1,3-benzothiazol-4-yl)-N^1-(1,1-dioxidotetrahydrothiophen-3-yl)-N~1~-methyl-3-(1H-tetrazol-5-yl)benzene-1,2-disulfonamide]
The Efflux ratio of the first is lower: 2.00 for the first, 8.00 for the second.

Compared with `NS(=O)(=O)c1c(S(=O)(=O)N[C@@H]2CCNC2)ccc(-c2ccc3nonc3c2)c1-c1nnn[nH]1` [Example 133, (R)-4-(benzo[c][1,2,5]oxadiazol-5-yl)-N1-(pyrrolidin-3-yl)-3-(1H-tetrazol-5-yl)benzene-1,2-disulfonamide], `Nc1nc2c(-c3ccc(S(=O)(=O)N[C@@H]4CCCNC4)c(S(N)(=O)=O)c3-c3nnn[nH]3)cccc2[nH]1` [Example 178, (R)-4-(2-amino-1H-benzo[d]imidazol-4-yl)-N^1-(piperidin-3-yl)-3-(1H-tetrazol-5-yl)benzene-1,2-disulfonamide] is lower in Efflux ratio: 8.00 for the first, 1.00 for the second.

First: CN(C)CCCN(C)S(=O)(=O)c1ccc(-c2cccc3sc(N)nc23)c(-c2nnn[nH]2)c1S(N)(=O)=O [Example 52, 4-(2-amino-1,3-benzothiazol-4-yl)-N1-[3-(dimethylamino)propyl]-N~1~-methyl-3-(1H-tetrazol-5-yl)benzene-1,2-disulfonamide]
Second: CC(CN)NS(=O)(=O)c1ccc(-c2cccc3sc(N)nc23)c(-c2nnn[nH]2)c1S(N)(=O)=O.O=CO (stereo not drawn) [Example 116, 2-(4-(2-aminobenzo[d]thiazol-4-yl)-2-sulfamoyl-3-(1H-tetrazol-5-yl)phenylsulfonamido) propan-1-aminium formate]
The Efflux ratio of the first is higher: 2.00 for the first, 0.50 for the second.

Compared with `Cc1ccc(-c2ccc(S(N)(=O)=O)c(S(N)(=O)=O)c2-c2nn[nH]n2)c2nc(N)sc12` [Example 6, 4-(2-amino-7-methylbenzo[d]thiazol-4-yl)-3-(2H-tetrazol-5-yl)benzene-1,2-disulfonamide], `Cn1c(N)nc2c(-c3ccc(S(N)(=O)=O)c(S(N)(=O)=O)c3-c3nn[nH]n3)cccc21` [Example 5, 4-(2-amino-1-methyl-1H-benzo[d]imidazol-4-yl)-3-(2H-tetrazol-5-yl)benzene-1,2-disulfonamide] is higher in Efflux ratio: 1.00 for the first, 2.00 for the second.

`C[C@H](CN)NS(=O)(=O)c1ccc(-c2cncc(N)c2)c(-c2nn[nH]n2)c1S(N)(=O)=O` [Example 221, (R)—N1-(1-aminopropan-2-yl)-4-(5-aminopyridin-3-yl)-3-(2H-tetrazol-5-yl)benzene-1,2-disulfonamide] and `NC[C@H](O)CNS(=O)(=O)c1ccc(-c2cccc3[nH]cnc23)c(-c2nn[nH]n2)c1S(N)(=O)=O` [Example 307, (S)-4-(1H-benzo[d]imidazol-4-yl)-N1-(3-amino-2-hydroxypropyl)-3-(2H-tetrazol-5-yl)-benzene-1,2-disulfonamide] are the same in Efflux ratio: 1.00 for the first, 1.00 for the second.

Going from `NCCNS(=O)(=O)c1ccc(-c2cccc3nonc23)c(-c2nn[nH]n2)c1S(N)(=O)=O` [Example 239, N^1-(2-aminoethyl)-4-(benzo[c][1,2,5]oxadiazol-4-yl)-3-(2H-tetrazol-5-yl)benzene-1,2-disulfonamide] to `NCCNS(=O)(=O)c1ccc(-c2cccc3[nH]nnc23)c(-c2nn[nH]n2)c1S(N)(=O)=O` [Example 236, N^1-(2-aminoethyl)-4-(1H-benzo[d][1,2,3]triazol-4-yl)-3-(2H-tetrazol-5-yl)benzene-1,2-disulfonamide], the Efflux ratio falls from 8.00 to 1.00.

`CN1CCC(NS(=O)(=O)c2ccc(-c3cccc4sc(N)nc34)c(-c3nnn[nH]3)c2S(N)(=O)=O)C1` (stereo not drawn) [Example 53, 4-(2-amino-1,3-benzothiazol-4-yl)-N1-(1-methylpyrrolidin-3-yl)-3-(1H-tetrazol-5-yl)benzene-1,2-disulfonamide] and `Nc1nc2c(-c3ccc(S(=O)(=O)N4CC[C@H](N)C4)c(S(N)(=O)=O)c3-c3nnn[nH]3)cccc2s1` [Example 61, 3-(2-amino-1,3-benzothiazol-4-yl)-6-{[(3S)-3-aminopyrrolidin-1-yl]sulfonyl}-2-(1H-tetrazol-5-yl)benzenesulfonamide] are the same in Efflux ratio: 1.00 for the first, 1.00 for the second.

First: NCC1CN(S(=O)(=O)c2ccc(-c3cccc4sc(N)nc34)c(-c3nnn[nH]3)c2S(N)(=O)=O)CCO1.O=C(O)C(F)(F)F (stereo not drawn) [Example 104, (4-((4-(2-aminobenzo[d]thiazol-4-yl)-2-sulfamoyl-3-(1H-tetrazol-5-yl)phenyl)sulfonyl)morpholin-2-yl) methanaminium 2,2,2-trifluoroacetate]
Second: Nc1nc2c(-c3ccc(S(=O)(=O)NCC4CNCCO4)c(S(N)(=O)=O)c3-c3nnn[nH]3)cccc2s1.O=C(O)C(F)(F)F (stereo not drawn) [Example 112, 2-((4-(2-aminobenzo[d]thiazol-4-yl)-2-sulfamoyl-3-(1H-tetrazol-5-yl)phenylsulfonamido)methyl)morpholin-4-ium 2,2,2-trifluoroacetate]
The Efflux ratio of the first is higher: 2.00 for the first, 1.00 for the second.

Compared with `NS(=O)(=O)c1c(S(=O)(=O)N[C@@H]2CCNC2)ccc(-c2cccc(-c3nc[nH]n3)c2)c1-c1nn[nH]n1` [Example 225, (R)-N4-(pyrrolidin-3-yl)-2-(2H-tetrazol-5-yl)-3′-(1H-1,2,4-triazol-3-yl)-[1,1′-biphenyl]-3,4-disulfonamide], `NS(=O)(=O)c1ccc(-c2cccc3cn[nH]c23)c(-c2nn[nH]n2)c1S(N)(=O)=O` [Example 3, 4-(1H-indazol-7-yl)-3-(2H-tetrazol-5-yl)benzene-1,2-disulfonamide] is higher in Efflux ratio: 1.00 for the first, 2.00 for the second.

Going from `NCCNS(=O)(=O)c1ccc(C2CCC[C@H](N)C2)c(-c2nn[nH]n2)c1S(N)(=O)=O` (stereo partly drawn) [Example 342, 4-((3S)-3-aminocyclohexyl)-N1-(2-aminoethyl)-3-(2H-tetrazol-5-yl)benzene-1,2-disulfonamide] to `Nc1nc2c(-c3ccc(S(=O)(=O)N[C@@]4(CO)CCNC4)c(S(N)(=O)=O)c3-c3nnn[nH]3)cccc2[nH]1` [Example 176, (S)-4-(2-amino-1H-benzo[d]imidazol-4-yl)-N1-(3-(hydroxymethyl)pyrrolidin-3-yl)-3-(1H-tetrazol-5-yl)benzene-1,2-disulfonamide], the Efflux ratio falls from 4.00 to 1.00.

Compared with `COc1ccnc(CNS(=O)(=O)c2ccc(-c3cccc4sc(N)nc34)c(-c3nnn[nH]3)c2S(N)(=O)=O)n1` [Example 34, 4-(2-amino-1,3-benzothiazol-4-yl)-N1-[(4-methoxypyrimidin-2-yl)methyl]-3-(1H-tetrazol-5-yl)benzene-1,2-disulfonamide], `CN(C1CNC1)S(=O)(=O)c1ccc(-c2cccc3sc(N)nc23)c(-c2nnn[nH]2)c1S(N)(=O)=O.O=C(O)C(F)(F)F` [Example 105, 3-(4-(2-aminobenzo[d]thiazol-4-yl)-N-methyl-2-sulfamoyl-3-(1H-tetrazol-5-yl)phenylsulfonamido) azetidin-1-ium 2,2,2-trifluoroacetate] is lower in Efflux ratio: 4.00 for the first, 1.00 for the second.
